Measured values reported in publication PMC6113202.
Each block holds one molecule with its values, some of them ahead of it.

Tests used:
[1] = tested on: Scram (DNA, duplex) GTCGTTCTGATCCAGGTGATGTAGTCGACG/CGTCGACTACATCACCTGGATCAGAACGAC; assay: fluorescence turn-on; details: KCl 150 mM in p53 buffer (80% v/v); NaCl 50 mM in DNA buffer (15% v/v); NaPi pH 7.2, DTT, Tris-HCl, 5% DMSO; room temperature; dye 100 nM
[2] = tested on: pDINP1 (DNA, duplex) TTATAGAACTTGGGGGAACATGTTTACCAA/TTGGTAAACATGTTCCCCCAAGTTCTATAA; assay: fluorescence turn-on heat map; details: KCl 150 mM in p53 buffer (80% v/v); NaCl 50 mM in DNA buffer (15% v/v); 4 μM dye, 250 nM DNA; NaPi pH 7.2, DTT, Tris-HCl, 5% DMSO; room temperature
[3] = tested on: IGF-BP3 (DNA, duplex) CTAGAAAACAAGCCACCAACATGCTTGCATG/CATGCAAGCATGTTGGTGGCTTGTTTTCTAG; assay: fluorescence turn-on heat map; details: KCl 150 mM in p53 buffer (80% v/v); NaCl 50 mM in DNA buffer (15% v/v); 4 μM dye, 250 nM DNA; NaPi pH 7.2, DTT, Tris-HCl, 5% DMSO; room temperature
[4] = tested on: hairpin p21 RE (DNA, hairpin) GAAGAAGACTGGGCATGTCTAAAAAAGACATGCCCAGTCTTCTTC; assay: fluorescence titration; details: KCl 150 mM in p53 buffer (80% v/v), NaCl 50 mM in DNA buffer (15% v/v), per base pair, approximate, NaPi pH 7.2, DTT, Tris-HCl, room temperature, dye 100 nM
[5] = tested on: p21 (DNA, duplex) TAGAGGAAGAAGACTGGGCATGTCTGGGCA/TGCCCAGACATGCCCAGTCTTCTTCCTCTA; assay: fluorescent intercalator displacement by p53; details: KCl 150 mM in p53 buffer (80% v/v); NaCl 50 mM in DNA buffer (15% v/v); 1 μM DNA, 10 μM dye; dye displaced by p53; NaPi pH 7.2, DTT, Tris-HCl, 5% DMSO
[6] = tested on: RGC (DNA, duplex) CACATGCCTTGCCTGGACTTGCCT/AGGCAAGTCCAGGCAAGGCATGTG; assay: fluorescent intercalator displacement by p53; details: KCl 150 mM in p53 buffer (80% v/v); NaCl 50 mM in DNA buffer (15% v/v); 1 μM DNA, 10 μM dye; dye displaced by p53; NaPi pH 7.2, DTT, Tris-HCl, 5% DMSO
[7] = target: T1, p53-WT (UniProt P04637 94-360); assay: fluorescent intercalator displacement; AO-R; almost no displacement; 1 uM DNA, 10 uM dye; 5% DMSO, 80% p53 buffer (25 mM NaPi pH 7.2, 150 mM KCl, 4 mM DTT), 15% DNA buffer (10 mM Tris-HCl pH 8.0, 50 mM NaCl); room temperature (stated for rotor-DNA mixtures); details: protein: recombinant; tags: N-terminal His6; chain copies: 4; blunt
[8] = target: T1, p53-WT; assay: fluorescent intercalator displacement; AO-R; p53 concentration-dependent; 1 uM DNA, 10 uM dye; 5% DMSO, 80% p53 buffer (25 mM NaPi pH 7.2, 150 mM KCl, 4 mM DTT), 15% DNA buffer (10 mM Tris-HCl pH 8.0, 50 mM NaCl); room temperature (stated for rotor-DNA mixtures); details: protein: recombinant; tags: N-terminal His6; chain copies: 4; blunt
[9] = target: T1, p53-WT; assay: fluorescent intercalator displacement; AO-R; strongest displacement of panel; 1 uM DNA, 10 uM dye; 5% DMSO, 80% p53 buffer (25 mM NaPi pH 7.2, 150 mM KCl, 4 mM DTT), 15% DNA buffer (10 mM Tris-HCl pH 8.0, 50 mM NaCl); room temperature (stated for rotor-DNA mixtures); details: protein: recombinant; tags: N-terminal His6; chain copies: 4; blunt

T1 sequence (P04637 94-360): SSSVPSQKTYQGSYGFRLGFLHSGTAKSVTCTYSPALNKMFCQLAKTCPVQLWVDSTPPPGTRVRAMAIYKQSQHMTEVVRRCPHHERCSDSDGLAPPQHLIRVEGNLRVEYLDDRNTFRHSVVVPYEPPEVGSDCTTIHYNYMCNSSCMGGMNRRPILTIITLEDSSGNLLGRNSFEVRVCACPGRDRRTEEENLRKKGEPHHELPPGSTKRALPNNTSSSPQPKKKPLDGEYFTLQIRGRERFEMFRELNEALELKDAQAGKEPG

Molecule: C[n+]1ccc(/C=C/c2ccc(-n3c4ccc(/C=C/c5cc[n+](C)cc5)cc4c4cc(/C=C/c5cc[n+](C)cc5)ccc43)cc2)cc1
binding [2]: yes
binding [3]: yes

Molecule: CN(C)c1ccc2cc3ccc(N(C)C)c(/C=C(\C#N)C(=O)O)c3nc2c1
binding [1]: yes
Kd [4]: 4.8 ± 0.8 µM
binding [5]: yes
binding [6]: yes

B1: Scram (dsDNA)
DNA 1: GTCGTTCTGATCCAGGTGATGTAGTCGACG
DNA 2: CGTCGACTACATCACCTGGATCAGAACGAC
binding result [7]: no binding

B2: RGC RE (dsDNA)
DNA 1: CACATGCCTTGCCTGGACTTGCCT
DNA 2: AGGCAAGTCCAGGCAAGGCATGTG
binding result [8]: binds

B3: Con-A (dsDNA)
DNA 1: GGGCATGTCCGGGCATGTCC
DNA 2: GGACATGCCCGGACATGCCC
binding result [9]: binds

B4: p21 RE (dsDNA)
DNA 1: TAGAGGAAGAAGACTGGGCATGTCTGGGCA
DNA 2: TGCCCAGACATGCCCAGTCTTCTTCCTCTA
binding result [8]: binds

Now from value to molecule:

binding [1]: yes
Molecule: CN1C(=Cc2cc[n+](CCCN)c3ccccc23)Sc2ccccc21

binding [1]: yes
binding [2]: yes
binding [3]: yes
Molecule: C[n+]1ccc(/C=C/c2ccc3c(c2)c2cc(/C=C/c4cc[n+](C)cc4)ccc2n3-c2ccccc2)cc1

binding [1]: yes
Molecule: CN1C(=Cc2cc[n+](C)c3ccccc23)Sc2ccccc21

binding [1]: yes
Molecule: CC[n+]1c(-c2ccccc2)c2cc(N)ccc2c2ccc(N)cc21

binding [1]: yes
Kd [4]: 12.5 ± 1.0 µM
Molecule: CN(C)c1ccc2cc3ccc(N(C)C)cc3nc2c1
